Results published in patent US8263576B2, “Non-natural sphingolipid analogs and uses thereof” (Mayo Foundation for Medical Education and Research, priority 2006, dated 2012).

Legend:
rat fibroblasts = test: Inhibition of lipid analog endocytosis by biochemical treatments in rat fibroblasts; format: cell-based
Text: To define the molecular features of GSL analogs and their ability to selectively internalize by caveolar endocytosis, the structure of the natural D-erythro-LacCer compound was modified (Singh, R. D., et al. Mol. Biol. Cell, 2003, 14, 3254). The modifications included those to the structure of the fluorescent lipid through variations to its carbohydrate headgroup, chain length of the sphingosine base, or chain length of the fluorescent fatty acid (see FIG. 6). Tests were designed to test initial internalization and sensitivity to inhibitor treatments.
To investigate the structural determinants of GSLs that result in selective internalization via caveolae, the structure of the fluorescent GSL analogs were systematically varied (see FIG. 6) and examined to determine the effect of these variations on the mechanism of analog internalization. To examine the significance of the carbohydrate head group, the fluorescent analogs of GalCer, globoside, GM1, LacCer, MalCer, and sulfatide were used. For each of these fluorescent GSL analogs, the fluorescent fatty acid and sphingosine base were identical (n′=3, n=7; FIG. 6A). Rat fibroblasts (RFs) were incubated with each analog in the presence or absence of various inhibitors to differentiate clathrin-dependent from clathrin-independent endocytosis, and the amount of internalization (at 5 min) was quantified by image analysis.
A control experiment was carried out exactly as above, except that BODIPY-LacCer was introduced into cells from an ethanolic solution rather than from a BSA complex.
Furthermore, the importance of hydrophobicity on the mechanism of GSL endocytosis was examined. For these studies, the BODIPY-LacCer analogs that were used varied the chain length of the sphingosine base (C12 to C20), or fatty acid (C3 vs. C5 spacer) (n=1, 5, 7, or 9; n′=1 or 3; FIG. 6A).
Finally, a comparison between NBD-LacCer and NBD-D-PC (see FIG. 6B)was made to study the possible influence of the lipid backbone (ceramide vs. glycerol) on the internalization mechanism.

[1] = tested on: clathrin-dependent endocytosis; conditions: Singh et al., J. Biol. Chem. 2006; cited from earlier work
[2] = tested on: caveolar endocytosis in HSFs; test: Uptake of endocytic markers in human skin fibroblasts (fluorescence microscopy); format: cell-based; conditions: HSFs treated 30 min at 10° C. with lipid, pulse labeled, 5 min at 37° C.
Method: HSFs were either untreated (Control) or treated for 30 min at 10° C. with D-erythro or L-threo-C8-LacCer, and then pulse labeled with fluorescent albumin or β1-integrin Fab (caveolar markers), Tfn (clathrin marker), dextran (fluid phase marker), or anti-IL2R Fab (for RhoA pathway). After 5 min at 37° C., cells were acid-stripped to remove non-internalized marker and images were acquired by fluorescence microscopy (A) and quantified (B). At least 20 cells for each condition were analyzed in multiple experiments. Bar, 10 μm.
The non-natural (L-threo; LT) isomers of C8-LacCer and BODIPY-LacCer were synthesized. The latter was synthesized by the method detailed in Liu, Y., et al. Chem. Phys. Lipids, 2006, 142, 58 (referred to as Liu). C8-LT-LacCer was prepared through a modification of the methods used in Liu, where an activated for of octanoic acid was used in place of BODIPY-C5-NHS. HSFs were then either untreated (Control) or treated for 30 min at 10° C. with D-erythro (DE) or L-threo (LT) C8-LacCer, and then pulse labeled with fluorescent albumin or anti-β1-integrin Fab (caveolar markers), Tfn (clathrin marker), dextran (fluid phase marker), or anti-IL2R Fab (for RhoA pathway). After 5 min at 37° C., cells were acid-stripped to remove non-internalized marker and images were acquired by fluorescence microscopy (A) and quantified (B). At least 20 cells for each condition were analyzed in multiple experiments. Bar, 10 μm.

[3] = tested on: PM domains enriched in GM1 ganglioside; test: PM microdomain clustering induced by CtxB and anti-CtxB Ab in HSFs; format: cell-based, human; conditions: HSFs pretreated with lipid 30 min at 10° C.
Text: (§1) PM domains enriched in GM1 ganglioside (A,B) or cholesterol (C) were visualized using fluorescent CtxB or BC-⊖, respectively. Clustering of these probes was induced using an anti-CtxB Ab or SV40. Note the inhibition of microdomain clustering when cells were pretreated with C8-LT-LacCer, compared to untreated control samples. (A), HSFs; (B,C) CV1 cells. Bars, 10 μm.
A potential mechanism for C8-LT-LacCer inhibition of caveolar endocytosis, namely disruption of PM microdomain formation, was explored. This mechanistic possibility was tested through incubation of cells with AF594-CtxB at 10° C. to label […] at the PM, followed by an anti-Ctx-B IgG.

β1-integrin = target: T1, β1-integrin (Homo sapiens, UniProt P05556); test: β1-integrin activation in HSFs (HUTS-4 Ab binding); format: cell-based; conditions: for HUTS binding (β1-integrin activation), agent alone: HSFs, lipid in the absence of β1-stim Ab, or β1-stim Ab alone
T1 construct: endogenous in cells; host or cells: human skin fibroblasts (HSFs)
Method: FIG. 4a: HSFs were serum-starved for 2-3 hrs and then either untreated (panel 1, Control) or incubated with a stimulating β1-integrin IgG (panel 2; β1-stim) or with the LacCer isomers (panels 3 & 4) for 30 min at 10° C. All samples were then warmed for 30 sec at 37° C., fixed and stained with HUTS-4 Ab that recognizes β1-integrin in its active conformation. Note the absence of β1-integrin activation in cells pretreated with C8-LT-LacCer. Quantitation in FIG. 4b was by image analysis (n≧10 cells/condition; 3 independent experiments). Bars, 10 μm.
A further mechanistic possibility by which C8-LT-LacCer might inhibit caveolar internalization is by disruption transmembrane signaling events required for endocytosis. […] The first examination involved the activation of β1-integrin in HSFs following crosslinking with a stimulatory Ab (β1-stim Ab) using the HUTS-4 Ab which only binds to β1-integrins in their activated conformation (see, e.g., Luque, A. et al., J. Biol. Chem. 1996, 271, 11067).

src kinase = test: src phosphorylation (Y416) immunoblot in HSFs; format: cell-based, human; conditions: for src activation (phosphorylation at Y416), lipid alone: 30 min at 10° C., then 30 sec at 37° C.; for src phosphorylation induced by β1-stim Ab: cells pretreated with lipid, data not shown
Method: HSFs were treated with C8-DE-LacCer (±PP2), C8-LT-LacCer, PDGF, or with β1 stim Ab±LacCer isomers. Samples were warmed for 30 sec at 37° C., lysed, and the cell lysates blotted for src and phosphor-Src (Y416).
Cells were incubated for 30 min at 10° C.± the LacCer stereoisomers and/or the β1-stim Ab followed by a 30 sec incubation at 37° C. Cell lysates were then immunoblotted for src and phospho-(Y416) src.

human eosinophils [4] = test: Eosinophil adhesion to tissue culture wells; format: cell-based
human eosinophils [5] = test: Eosinophil superoxide generation (cytochrome c reduction); format: cell-based; conditions: versus medium alone, 37° C., up to 4 h
Method: Human eosinophils were purified from normal individuals or patients with mild allergy by Percoll density gradient centrifugation and magnetic cell sorting using MACS anti-CD16 microbeads as described by Hansel T. T., et al., J. Immunol. Methods 1991, 145, 105. Briefly, after peripheral blood was overlaid on an isotonic Percoll solution (1.084 g.ml, Sigma), the blood was centrifuges at 1000×g for 30 min at 4° C. Mononuclear cells at the interface were removed, and erythrocytes in sediment were lysed by two cycles of hypotonic water lysis. […] The purity of eosinophils counted by Randolph's stain was >98%. […]
Superoxide anion generation and degranulation by human eosinophils were used as readouts of eosinophils functions in response to proteases or synthetic PAR activating peptides. Generation of superoxide by eosinophils was measured by superoxide dismutase-inhibitable reduction of cytochrome c as previously described with slight modifications. […] Immediately after addition of stimuli, the reaction wells were measured for absorbance at 550 nm in a microplate autoreader (Thermomax, Molecular Devices, Menlo Park, Calif.), followed by repeated readings. Between absorbance measurements, the plate was incubated at 37° C. […] To quantitate eosinophils degranulation, the concentrations of eosinphil-derived neutrotoxin (EDN) in the sample supernatants were measure by specific RIA.

SV40 virus [6] = test: SV40 infection of CV1 cells (large T antigen expression); format: cell-based, monkey; conditions: CV1 cells pretreated with lipid and SV40 at low temperature, then 37° C. for 14 hrs
[7] = tested on: PM domains enriched in GM1 ganglioside; conditions: Singh et al., 2006, submitted; cited from earlier work
[8] = tested on: PM domains enriched in GM1 ganglioside and cholesterol; test: SV40-induced PM domain formation in CV1 cells; format: cell-based, monkey; conditions: CV1 cells pretreated with lipid, low temperature
Text: as §1

SV40 virus [9] = test: SV40 binding to CV1 cells (anti-SV40 VP1 MAb); conditions: lipid and SV40 at low temperature
Method: (A, B) CV1 cells were incubated LacCer stereoisomers for 30 min at 10° C., and then coincubated for 1 hr at 10° C. with SV40 virus (MOI=15). Samples were washed, incubated for 40 hrs in complete medium, fixed, permeabilized, and stained for the Large T antigen. Values in (B) are mean ±SD (n≧50 cells/condition; three independent experiments). (C, D) CVI cells were treated with SV40 for 1 hr as in (A,B) and SV40 binding to live cells was detected using anti-SV40 VP1 MAb. Values in D are mean ±SD (n≧20 cells from two independent experiments).
Cells were treated with the C8-LT-LacCer isomer and SV40 at low temperature, washed, and then incubated with a monoclonal antibody to the SV40 major capsid protein VP1.

[10] = tested on: clathrin-dependent endocytosis; test: Internalization route of BODIPY-LacCer stereoisomers; format: cell-based; conditions: data not shown

T1 sequence (P05556 21-798): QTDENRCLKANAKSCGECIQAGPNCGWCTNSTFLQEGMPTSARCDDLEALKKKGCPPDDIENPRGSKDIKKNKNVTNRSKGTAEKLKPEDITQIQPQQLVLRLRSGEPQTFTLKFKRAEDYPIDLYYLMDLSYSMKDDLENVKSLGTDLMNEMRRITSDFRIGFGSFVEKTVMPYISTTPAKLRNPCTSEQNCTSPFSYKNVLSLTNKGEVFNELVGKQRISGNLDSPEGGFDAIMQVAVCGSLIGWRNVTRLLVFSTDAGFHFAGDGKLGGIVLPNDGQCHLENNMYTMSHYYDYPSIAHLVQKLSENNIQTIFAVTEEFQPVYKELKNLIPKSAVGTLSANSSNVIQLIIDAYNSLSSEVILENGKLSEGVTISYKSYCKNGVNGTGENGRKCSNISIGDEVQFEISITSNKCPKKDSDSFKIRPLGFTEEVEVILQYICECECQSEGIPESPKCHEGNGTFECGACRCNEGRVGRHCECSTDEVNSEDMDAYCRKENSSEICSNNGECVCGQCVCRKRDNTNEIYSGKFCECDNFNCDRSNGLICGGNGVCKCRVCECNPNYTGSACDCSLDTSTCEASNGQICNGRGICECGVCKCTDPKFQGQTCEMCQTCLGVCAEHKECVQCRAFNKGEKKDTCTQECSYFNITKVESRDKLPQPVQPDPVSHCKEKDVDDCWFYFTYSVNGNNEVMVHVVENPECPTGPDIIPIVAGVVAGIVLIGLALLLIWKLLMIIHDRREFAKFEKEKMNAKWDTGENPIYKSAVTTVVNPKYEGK

CCCCCCCCCCCCC/C=C/[C@@H](O)[C@H](CO[C@@H]1O[C@H](CO)[C@@H](O[C@@H]2O[C@H](CO)[C@H](O)[C@H](O)[C@H]2O)[C@H](O)[C@H]1O)NC(=O)CCCCc1ccc2n1[B-](F)(F)[N+]1=C(C)C=C(C)C1=C2 [BODIPY-LacCer]
sensitivity of internalization to chlorpromazine (CPZ) (rat fibroblasts): not by chlorpromazine | sensitivity of internalization to nystatin (rat fibroblasts): substantially inhibited | inhibition of endocytosis when delivered by ethanol injection vs. BSA complex (rat fibroblasts; ethanolic solution): virtually identical results | Inhibition of lipid analog endocytosis, Clathrin-dependent internalization, Chloropromazine (rat fibroblasts; internalization at 5 min): 9.3 ± 1.7% | Inhibition of lipid analog endocytosis, Clathrin-dependent internalization, K+-depletion (rat fibroblasts; internalization at 5 min): 10.4 ± 1.3% | Inhibition of lipid analog endocytosis, Clathrin-independent internalization, Genistein (rat fibroblasts; internalization at 5 min): 73.9 ± 4.1% | Inhibition of lipid analog endocytosis, Clathrin-independent internalization, Nystatin (rat fibroblasts; internalization at 5 min): 75.1 ± 6.8% | internalization route [1]: internalized via caveolae

CCCCCCCCCCCCC/C=C/[C@@H](O)[C@H](CO[C@@H]1O[C@H](CO)[C@@H](O[C@@H]2O[C@H](CO)[C@H](O)[C@H](O)[C@H]2O)[C@H](O)[C@H]1O)NC(=O)CCCCCCC [C8-DE-LacCer]
uptake of caveolar markers (fluorescent albumin, β1-integrin Fab) [2]: stimulated caveolar uptake | clustering of PM domains induced by labeled CtxB and crosslinking Ab [3]: No inhibition of domain formation was observed | HUTS binding (β1-integrin activation), agent alone (β1-integrin): activated β1-integrin | src activation (phosphorylation at Y416), lipid alone (src kinase): activated (phosphorylated at Y416) | src phosphorylation induced by β1-stim Ab (src kinase): did not significantly affect src phosphorylation | adhesion of eosinophils (human eosinophils [4]): induces adhesion of eosinophils to tissue culture wells | superoxide production by eosinophils (human eosinophils [5]): A large quantity of superoxide was produced | SV40 infection monitored by expression of the large T antigen (SV40 virus [6]): no effect | formation of PM domains in the absence of a crosslinking Ab [7]: induced the formation of large domains enriched in GM1 ganglioside and cholesterol

CCCCCCCCCCCCC/C=C/[C@H](O)[C@H](CO[C@@H]1O[C@H](CO)[C@@H](O[C@@H]2O[C@H](CO)[C@H](O)[C@H](O)[C@H]2O)[C@H](O)[C@H]1O)NC(=O)CCCCCCC [C8-LT-LacCer, β-D-lactosyl-N-octanoyl-L-threo-sphingosine]
uptake of caveolar markers (fluorescent albumin, β1-integrin Fab) [2]: inhibited uptake of multiple caveolar markers | uptake of caveolar markers (fluorescent albumin, β1-integrin Fab) ([2]; listed as LT-isomer of C8-LacCer): selectively inhibiting caveolar endocytosis | clustering of PM domains induced by labeled CtxB and crosslinking Ab [3]: no clustering of PM domains was observed | SV40 induction of PM domains [8]: prevented the SV40 induction of these PM domains | HUTS binding (β1-integrin activation) induced by β1-stim Ab (β1-integrin; HSFs pretreated with lipid prior to β1-stim Ab): reduced HUTS binding to levels seen in untreated control cells | HUTS binding (β1-integrin activation), agent alone (β1-integrin): no increase in HUTS binding was seen | src activation (phosphorylation at Y416), lipid alone (src kinase): little or no src activation | src phosphorylation induced by β1-stim Ab (src kinase): inhibited src phosphorylation | SV40 infection monitored by expression of the large T antigen (SV40 virus [6]): dramatically reduced | inhibition of SV40 binding to CV1 cells (SV40 virus [9]): about 80%

CC(C)(C)n1nc(-c2ccc(Cl)cc2)c2c(N)ncnc21 [PP2]
src activation induced by C8-DE-LacCer (src kinase; with src inhibitor): blocked

C5-BODIPY-L-threo-lactosylceramide [BODIPY-LT-LacCer]
fraction internalized by clathrin-dependent endocytosis [10]: 65-70%
